Measured values: US7786160B2, “Combination of selected analgesics and COX-II inhibitors” (Gruenenthal GmbH, priority 2002, dated 2010)
Where two headings read alike, the source gives them in different places.

Assays:
Format in all cases: in vivo
rat [1] = experiment: Randall-Selitto test (yeast oedema, model for inflammatory pain); details: for effect of compound A with COX-II inhibitor (Rofecoxib or Celecoxib) compared with additive (in words): staggered administration, Rofecoxib or Celecoxib 1 hour prior to compound A
Procedure: The Randell-Selitto test of Randall and Selitto (Arch. Int. Pharmacodyn., 1957, 111: 409 to 419) is a model for inflammatory pain.
By means of the injection of 0.1 ml 20% baking yeast suspension ventrally into a hind paw an oedema was induced, on which pain was generated 4 hours later by continuously increasing pressure with a stamp (2 mm tip diameter). The measured value to be determined and at the same time also the end point of the pain test was the pressure at which the vocalisation reaction of the animal occurred. The percentage maximum possible effect (%MPE) was calculated. The maximum pressure of the stamp was 250 g. The group size was n=10.
The theoretical additive value was calculated by adding the mean values from the individual tests of the test substance and COX-II inhibitor. The corresponding standard deviation of the theoretical additive mean value was calculated from the addition of the variances.

mouse = experiment: Formalin test (chronic pain component), mouse; details: peroral, substance alone
Procedure: (§1) The formalin test (Dubuisson, D. and Dennis, S. G., 1977, Pain, 4, 161 to 174) is a model for acute and chronic pain. In the tests presented here, the chronic pain component was evaluated.
(§2) By means of a single formalin injection into the dorsal side of a hind paw of test animals that were able to move freely, a biphasic nociceptive reaction, which was detected by the observation of three clearly distinguishable behavioural patterns, was induced.
(§3) Formalin having a volume of 20 μl and a concentration of 1% was administered subcutaneously into the dorsal side of the right hind paw of each animal. The specific behavioural changes, such as raising and shaking of the paw, weight loss in the animal and biting and licking reactions, were continuously observed and registered for up to 60 min after the formalin administration. The behavioural changes were weighted differently (a score of 0 to 3) and a pain rate (PR) calculated having the general formula: PR=[(T0×0)+(T1×1)+(T2×2)+(T3×3)/180.
(§4) The group contained 10 animals (n=10).

rat [2] = experiment: Formalin test (chronic pain component), rat; details: peroral, substance alone
Procedure: as §1, §2, §3, §4

rat [3] = experiment: Writhing test (acetic acid, model for acute pain); details: peroral, substance alone
Procedure: The writhing test is a modification of the method of Schmauss C and Yaksh TL, J Pharmacol Exp Ther 228: 1-12 (1984) and a model for acute pain.
9% acetic acid was administered to the animals intraperitoneally as a pain stimulus. This was administered 30 min (test substance perorally) or 10 min (test substance intravenously) after the administration of the test substance. The pain-induced writhing reactions were recorded 10 to 35 min after the administration of acetic acid. […] Pain expressions, such as a slanting body angle when the animal stands upright, frequent cleaning of the belly or arching of the back without stretching of the rear limbs, were thus included in the evaluation.
The animals that had been treated with the substance were compared with a control group, which had been given physiological saline solution. The group contained 10 animals (n=10).

[4] = All listed animal models together (acute, chronic and inflammatory pain); details: simultaneous administration with a selective COX-II inhibitor (Rofecoxib or Celecoxib), chronic and inflammatory pain (Table 1)
Procedure: 1, 4, 2 and 2 (Randall-Selitto test). In these tests, either Rofecoxib or Celecoxib was administered 1 hour prior to the administration of the selected analgesic (compound A). In a few tests, Rofecoxib was administered as the final preparation Vioxx and Celecoxib as Celebrex.

[5] = read-out: ED50 [mg/kg] of COX-II inhibitor
[6] = read-out: ED50 [mg/kg] of compound A

SMILES: COc1cccc([C@@]2(O)C[C@H](O)CC[C@@H]2CN(C)C)c1.Cl (racemic) [Compound 4]
- % effect of compound A (rat [1]; Table 2, staggered series, compound A alone 68.1 mg/kg peroral, 15-75 min after administration of compound No. 4): 85.4%
- % effect of compound A (rat [1]; Table 2, staggered series, compound A alone 68.1 mg/kg peroral, 75-90 min after administration of compound No. 4): 45.2%
- effect of compound A with COX-II inhibitor (Rofecoxib or Celecoxib) compared with additive (in words) (rat [1]): clear effect-increasing supra-additive effect

SMILES: Cc1ccc(-c2cc(C(F)(F)F)nn2-c2ccc(S(N)(=O)=O)cc2)cc1 [Compound 101, Celecoxib, reference compound]
- ED50 (mouse; [5]): 38.5 mg/kg
- % effect of COX-II inhibitor (rat [1]; fixed dose combination (not staggered), COX-II inhibitor alone 215 mg/kg peroral, %MPE): 9.8%
- ED50 (rat [2]; [5]): 154 mg/kg

SMILES: CS(=O)(=O)c1ccc(C2=C(c3ccccc3)C(=O)OC2)cc1 [Compound 102, Rofecoxib, reference compound]
- ED50 (rat [3]; [5]): 60.1 mg/kg

SMILES: CN(C)C[C@@H]1CCCC[C@H]1c1cccc(O)c1.Cl [Compound 1, (1R,2R)-3-(2-dimethylaminomethyl-cyclohexyl)-phenol; hydrochloride]
- effect in comparison to the theoretically calculated purely additive effect [4]: intensification of effect
- % effect of compound A (rat [1]; Table 3, staggered series, compound A alone 46.4 mg/kg peroral): 26.2%
- effect of compound A with COX-II inhibitor (Rofecoxib or Celecoxib) compared with additive (in words) (rat [1]): clear effect-increasing supra-additive effect

SMILES: CC[C@@H](c1cccc(O)c1)[C@@H](C)CN(C)C.Cl [Compound 2, (1R,2R)-3-(3-dimethylamino-1-ethyl-2-methyl-propyl)-phenol; hydrochloride]
- ED50 (rat [3]; [6]): 33 mg/kg
- ED50 (mouse; [6]): 34.6 mg/kg
- % effect of compound A (rat [1]; Table 1, staggered administration series, compound A alone 31 mg/kg peroral): 20.0%
- % effect of compound A (rat [1]; Table 1, staggered administration series, compound A alone 46 mg/kg peroral): 32.6%
- % effect of compound A (rat [1]; fixed dose combination (not staggered), compound A alone 31 mg/kg peroral, %MPE): 13.3%
- effect of compound A with COX-II inhibitor (Rofecoxib or Celecoxib) compared with additive (in words) (rat [1]): clear effect-increasing supra-additive effect
- ED50 (rat [2]; [6]): 18 mg/kg

SMILES: CC[C@H](c1cccc(O)c1)[C@H](C)CN(C)C.Cl [Compound 3, (1S,2S)-3-(3-dimethylamino-1-ethyl-2-methyl-propyl)-phenol; hydrochloride]
- % effect of compound A (rat [1]; Table 4, staggered series, compound A alone 21.5 mg/kg peroral): 22.8%
